According to patent publication US5482957A, “Azole derivatives, process for their preparation and their use” (Hoechst Aktiengesellschaft, priority 1991, dated 1996):

Target: angiotensin II receptor
Test: Displacement of 125I- or 3H-angiotensin II from receptor preparations from various organs (liver, lung, adrenal gland, brain etc.)
Type: binding
Settings: Table 1; radioligand displacement, 25° C., 90 min, pH 7.4
Experimental: Alternatively, the affinity of the compounds of the formula I for the angiotensin II receptor can be determined by measurement of the ^125 I-angiotensin II or ^3 H-angiotensin II displacement of receptor preparations from various organs (liver, lung, adrenal gland, brain etc.).
To this end, the prepared membranes are suspended in an incubation buffer ([…], pH 7.4, containing 135 mM NaCl, 10 mM KCl, 10 mM MgCl2, 5 mM glucose, 0.2% bovine serum albumin and the protease inhibitors PMSF, 0.3 mM, and bacitracin, 0.1 mM) and incubated at 25° C. for 90 min together with the radioactively labeled angiotensin II and various concentrations of the compounds to be tested. Bound and free radioligand are then separated by filtration through micro glass fiber filters (GF51, Schleicher and Schull) in a cell collector (SKATRON).
The degree of displacement of the radioligand from the receptor by the test compounds is determined by measurement of the receptor-bound radioactivity on the filters by means of a beta- or gamma-spectrometer. The amount of the displacement of the radioligand from the receptor by the test compounds is indicated by the IC50, i.e. the concentration of the inhibitor which displaces 50% of the bound radioligand from the receptor. The calculation of the IC50 values is carried out by means of PC software (LIGAND, G. A. McPherson 1985, Elsevier BIOSOFT, 68 Hills Road, Cambridge, CB2 1LA, UK.).

IC50 [µM]	SMILES
0.0214	CCCCc1nc(SC)c(C(=O)OCC)n1Cc1ccc(-c2ccccc2S(=O)(=O)NS(=O)(=O)c2ccc([N+](=O)[O-])cc2)cc1 [Example 191]
0.0217	CCCCc1nc(SC)c(C(=O)OCC)n1Cc1ccc(-c2ccccc2S(=O)(=O)NS(=O)(=O)c2cccs2)cc1 [Example 194]
0.003	CCCCc1nc(SC)c(C(=O)OCC)n1Cc1ccc(-c2ccccc2S(=O)(=O)NC(=O)NC)cc1 [Example 195]
